Entries after “also recorded” stand apart in the source; their conditions may differ. Where two headings read alike, the source gives them in different places.
How the values were obtained:
rat IPMK [1] = tested on: rat IPMK; design: method as in PMID 24670057; conditions: read-out: Km of rat IPMK for ATP; IP3 used as the substrate; cited from earlier work
HsIPMK [2] = biological target: T1, HsIPMK (Homo sapiens, UniProt Q8NFU5); conditions: read-out: Km for ATP, HsIPMK, cited from earlier work
CaIpk2 = CaIpk2 (Candida albicans, UniProt Q59YE9); conditions: 200 µM IP3, ATP 25–400 µM
CaIpk2, sequence (Q59YE9 1-350): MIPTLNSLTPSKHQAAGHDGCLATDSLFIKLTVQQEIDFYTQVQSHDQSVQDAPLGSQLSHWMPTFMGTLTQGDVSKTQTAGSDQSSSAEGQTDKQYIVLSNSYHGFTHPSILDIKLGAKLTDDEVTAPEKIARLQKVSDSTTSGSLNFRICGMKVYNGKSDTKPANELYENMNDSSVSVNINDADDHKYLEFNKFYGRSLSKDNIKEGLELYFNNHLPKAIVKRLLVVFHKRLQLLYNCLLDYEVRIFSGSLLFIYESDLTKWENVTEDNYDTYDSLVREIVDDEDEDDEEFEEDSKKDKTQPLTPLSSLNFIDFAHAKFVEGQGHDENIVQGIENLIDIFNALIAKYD
Procedure: (§1) The kinetic properties of the purified recombinant enzymes were determined and compared using a Kinase-Glo® Max Luminescent Kinase Assay kit (Promega, Madison, WI, USA) in a reaction buffer consisting of 20 mM HEPES pH 6.8, 100 mM NaCl, 6 mM MgCl2, 20 µg/mL BSA, 1 mM DTT [14]. The IP3 concentration was fixed at 200 µM. The ATP starting concentrations ranged between 25 µM to 400 µM and the ATP remaining after up to 10-min reaction time was assessed by adding Kinase-Glo® reagent. An ATP standard curve (0–500 µM) was also generated using the same kit. The ATP concentration remaining was measured as luminescence using a SpectraMax iD5 plate reader. The relative luminescence unit (RLU) was converted to ATP concentration using the ATP standard curve. The reaction velocity was calculated for each starting ATP concentration and the data was fitted to the Michaelis-Menten equation using GraphPad Prism 9 to obtain Vmax and Km values.

HsIPMK [3] = biological target: T1, HsIPMK; conditions: 200 µM IP3, ATP 25–400 µM
Procedure: as §1

[4] = tested on: CnArg1 (IP3-4K from C. neoformans); experiment: Kinase-Glo enzyme inhibition assay, recombinant CnArg1; assay type: biochemical; conditions: selectivity, ratio higher than 1 = more selective for CnArg1
Procedure: (§2) The 2,6-disubstituted purine compounds are ATP-competitive IPK inhibitors. […] The amount of IP3 and kinase used for each recombinant enzyme was determined following the manufacturer’s instructions, and this concentration was used to assess the inhibitory properties of TNP analogues against each of the recombinant enzymes.
(§3) The analogues were dissolved in DMSO. For the assay, the inhibitors were added to the reaction mixture to achieve a final concentration of 50 µM in 5% DMSO (1:20 dilution). To achieve inhibitor concentrations lower than 50 µM in the assay, the inhibitor stock was first serially diluted two-fold in DMSO and added to the reaction mixture, to achieve concentrations ranging between 0.8 μM and 50 µM in 5% DMSO. Once all analogues and their dilution series had been added, the reaction was started by adding an optimal amount of recombinant IP3-4K enzyme. The reaction was stopped after 10-min incubation at room temperature by adding a 50 µL of Kinase-Glo® reagent. The mixture was incubated at room temperature in the dark for 10–15 min. Luminescence (RLU) was measured using a SpectraMax iD5 and an integration time of 0.5 s. Percent enzyme activity was defined as (RLUnegative − RLUsample)/(RLUnegative − RLUpositive) × 100. ‘Positive’ refers to 100% enzyme activity (no inhibitor used as the positive control), while ‘negative’ refers to 0% enzyme activity (no enzyme used as the negative control).
(§4) Next, we determined the inhibitory properties of TNP. TNP is an ATP-competitive inhibitor [34]. […] IP3 and enzyme concentrations were also optimised following the manufacturer’s instructions. […] This optimal amount of IP3 was then used to test varying concentrations of the kinase ranging from 0 to 20 ng/µL. The amount of kinase that produced luminescence values in the linear range of the kinase titration curve was deemed to be the optimal kinase amount.

[5] = biological target: CnArg1 (IP3-4K from C. neoformans) (Cryptococcus neoformans var. grubii, UniProt J9W3G0); experiment: as above; assay type: biochemical; conditions: 10 µM ATP, 50 µM IP3, 2.5 ng/µL enzyme, 10 min, room temperature, 5% DMSO; mean ± SEM
CnArg1 (IP3-4K from C. neoformans) (Cryptococcus neoformans var. grubii, UniProt J9W3G0), sequence (J9W3G0 entry or part of it): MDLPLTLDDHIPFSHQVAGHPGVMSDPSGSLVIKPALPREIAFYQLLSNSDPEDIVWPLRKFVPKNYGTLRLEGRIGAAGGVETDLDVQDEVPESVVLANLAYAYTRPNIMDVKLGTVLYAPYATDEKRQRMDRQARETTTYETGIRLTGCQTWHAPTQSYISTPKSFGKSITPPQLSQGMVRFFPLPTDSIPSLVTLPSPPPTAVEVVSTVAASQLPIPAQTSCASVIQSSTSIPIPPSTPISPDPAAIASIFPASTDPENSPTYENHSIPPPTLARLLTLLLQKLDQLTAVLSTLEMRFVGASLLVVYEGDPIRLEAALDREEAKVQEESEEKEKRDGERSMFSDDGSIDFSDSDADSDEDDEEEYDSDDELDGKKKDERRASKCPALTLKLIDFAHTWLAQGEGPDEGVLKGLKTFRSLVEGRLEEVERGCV
Procedure: as §2, §3, §4

HsIPMK [6] = biological target: T1, HsIPMK; experiment: Kinase-Glo enzyme inhibition assay, recombinant HsIPMK; note: 6 ng/µL enzyme; assay type: biochemical; design: GST (N, cleaved yes); made in house; host or cells: E. coli BL21 (DE3); plasmid made by GenScript
Procedure: as §2, §3, §4

Solubility observations = assay type: physicochemical; conditions: for Solubility in SPR analysis: SPR running buffer with 5% DMSO, KD could not be determined; for Solubility in enzyme assay conditions: 5% DMSO
[7] = tested on: CaIpk2 (IP3-4K from C. albicans); experiment: Kinase-Glo enzyme inhibition assay, recombinant CaIpk2; assay type: biochemical, Candida albicans; conditions: tested up to 50 µM; 10 µM ATP, 25 µM IP3
Procedure: as §2
as §3, with “Percent enzyme activity was defined as (RLUnegative − RLUsample)/(RLUnegative − RLUpositive) × 100. ‘Positive’ refers to 100% enzyme activity (no inhibitor used as the positive control), while ‘negative’ refers to 0% enzyme activity (no enzyme used as the negative control).” left out
Next, we determined the inhibitory properties of TNP. […] The amount of kinase that produced luminescence values in the linear range of the kinase titration curve was deemed to be the optimal kinase amount.

IP6K = tested on: IP6K; design: method as in PMID 19208622; conditions: read-out: IC50 against IP6K; cited from earlier work
rat IPMK [8] = tested on: rat IPMK; design: method as in PMID 24670057; conditions: at a concentration of 10 µM; cited from earlier work
human IP3K = tested on: human IP3K; design: method as in PMID 12210991; conditions: read-out: IC50 against IP3K; cited from earlier work

T1 sequence (Q8NFU5 whole entry): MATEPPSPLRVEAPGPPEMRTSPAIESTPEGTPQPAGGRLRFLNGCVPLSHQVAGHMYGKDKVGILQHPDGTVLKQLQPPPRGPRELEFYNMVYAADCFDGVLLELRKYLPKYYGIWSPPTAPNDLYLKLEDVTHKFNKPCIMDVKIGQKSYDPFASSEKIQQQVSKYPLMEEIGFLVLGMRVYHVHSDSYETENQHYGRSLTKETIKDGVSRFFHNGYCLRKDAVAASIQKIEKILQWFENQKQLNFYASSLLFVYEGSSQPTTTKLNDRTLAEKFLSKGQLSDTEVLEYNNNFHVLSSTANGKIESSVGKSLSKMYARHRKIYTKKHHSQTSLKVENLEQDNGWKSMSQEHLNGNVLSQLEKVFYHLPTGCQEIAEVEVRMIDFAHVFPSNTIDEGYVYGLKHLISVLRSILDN

Structure (SMILES)	HsIPMK/CnArg1 IC50 ratio [4]	IC50 [5] [µM]	IC50 (HsIPMK [6]) [µM]	further results
Nc1ncnc2c1ncn2[C@@H]1O[C@H](COP(=O)(O)OP(=O)(O)OP(=O)(O)O)[C@@H](O)[C@H]1O [ATP]				Km (rat IPMK [1]): 64 µM; Km (HsIPMK [2]; IP4 used as the substrate): 10 µM; Km (HsIPMK [2]; PIP2 used as the substrate): 61 ± 6 µM; Vmax, CaIpk2 (CaIpk2): 21 ± 3 µmol ATP/mg protein/min; Vmax, HsIPMK (HsIPMK [3]): 0.6 ± 0.07 µmol ATP/mg protein/min; Km (HsIPMK [3]; read-out: Km for ATP, HsIPMK, mean ± SEM): 128 ± 35 µM
FC(F)(F)c1cccc(CNc2nc(NCc3ccccc3)c3nc[nH]c3n2)c1 [Compound 9]	1.1	28 ± 7	32 ± 3	Solubility in SPR analysis (Solubility observations): Poor solubility—ND
FC(F)Oc1cccc(CNc2nc(NCc3ccccc3)c3nc[nH]c3n2)c1 [Compound 10]	2.8	20 ± 1	55 ± 2	
Cc1cccc(CNc2nc(NCc3ccccc3)c3nc[nH]c3n2)c1 [Compound 11]				Solubility in enzyme assay conditions (Solubility observations): poorly soluble; also recorded: Low solubility—ND
FC(F)(F)Oc1cccc(CNc2nc(NCc3ccccc3)c3nc[nH]c3n2)c1 [Compound 12]		77 ± 14		
COc1cccc(CNc2nc(NCc3ccccc3)c3nc[nH]c3n2)c1 [Compound 13]	6.0			
Brc1cccc(CNc2nc(NCc3ccccc3)c3nc[nH]c3n2)c1 [Compound 14]		44 ± 2		
NCc1cccc(CNc2nc(NCc3ccccc3)c3[nH]cnc3n2)c1 [Compound 15]		46 ± 22		
COC(=O)c1cccc(CNc2nc(NCc3ccccc3)c3nc[nH]c3n2)c1 [Compound 16]	3.4	14 ± 1	48 ± 2	
O=C(O)c1cccc(CNc2nc(NCc3ccccc3)c3nc[nH]c3n2)c1 [Compound 17]		45 ± 3		
FC(F)(F)c1ccccc1CNc1nc(NCc2ccccc2)c2nc[nH]c2n1 [Compound 18]				Solubility in enzyme assay conditions (Solubility observations): poorly soluble; also recorded: Low solubility—ND
FC(F)(F)c1ccc(CNc2nc(NCc3ccccc3)c3nc[nH]c3n2)cc1 [Compound 19]				Solubility in enzyme assay conditions (Solubility observations): poorly soluble; also recorded: Low solubility—ND
FC(F)(F)Oc1ccccc1CNc1nc(NCc2ccccc2)c2nc[nH]c2n1 [Compound 20]		71 ± 12		
FC(F)(F)Oc1ccccc1CNc1nc(NCc2ccccc2)c2nc[nH]c2n1 [Compound 21]		57 ± 6		
FC(F)(F)Oc1ccc(CNc2nc(NCc3ccccc3)c3nc[nH]c3n2)cc1 [Compound 22]				CnArg1 IC50 [5]: Not inhibitory
Fc1ccc(CNc2nc(NCc3ccccc3)c3nc[nH]c3n2)cc1 [Compound 23]	2.6	21 ± 1	55 ± 4	
COc1ccccc1CNc1nc(NCc2ccccc2)c2nc[nH]c2n1 [Compound 24]	3.7	24 ± 1	89 ± 9	
c1ccc(CNc2nc(NCc3ncccn3)nc3[nH]cnc23)cc1 [Compound 25]				CnArg1 IC50 [5]: Not inhibitory
Cn1ccnc1CNc1nc(NCc2ccccc2)c2nc[nH]c2n1 [Compound 26]				CnArg1 IC50 [5]: Not inhibitory
c1ccc(CNc2nc(NCC3CCOCC3)nc3[nH]cnc23)cc1 [Compound 27]	3.5	35 ± 2	123 ± 80	

Structure (SMILES)	HsIPMK/CnArg1 IC50 ratio [4]	IC50 [5] [µM]	IC50 (HsIPMK [6]) [µM]	further results
OCCNc1nc(NCc2ccccc2)c2[nH]cnc2n1 [Compound 28]		127 ± 32		
COCCNc1nc(NCc2ccccc2)c2nc[nH]c2n1 [Compound 29]		75 ± 9		
COCCNc1nc(NCc2cccc(C(F)(F)F)c2)nc2[nH]cnc12 [Compound 30]	2.4			
COCCNc1nc(NCc2cccc(Br)c2)nc2[nH]cnc12 [Compound 31]	1.5	29 ± 3	43 ± 4	
COCCNc1nc(NCc2cccc(I)c2)nc2[nH]cnc12 [Compound 32]	4.0	12 ± 1	48 ± 3	
COCCNc1nc(NCc2cccc(C(=O)OC)c2)nc2[nH]cnc12 [Compound 33]	3.8	38 ± 5	144 ± 55	
COCCNc1nc(NCc2cccc(C(=O)O)c2)nc2[nH]cnc12 [Compound 34]				CnArg1 IC50 [5]: Not inhibitory
COCCNc1nc(NCc2cccnc2)nc2[nH]cnc12 [Compound 35]		87 ± 9		
COCCNc1nc(NCc2cccc(O)c2)nc2[nH]cnc12 [Compound 36]		55 ± 6		
COCCNc1nc(NCc2ccc(OC)cc2)nc2[nH]cnc12 [Compound 38]		44 ± 6		
COCCNc1nc(NCCc2ccc(OC)cc2)nc2[nH]cnc12 [Compound 39]	0.9	22 ± 3	19 ± 1	
COCCNc1nc(Nc2ccc(OC)cc2)nc2[nH]cnc12 [Compound 40]	0.4	14 ± 1	5 ± 1	
FC(F)(F)c1cccc(CNc2nc(N3CCOCC3)c3nc[nH]c3n2)c1 [Compound 41]	3.4	24 ± 1	82 ± 9	
FC(F)(F)c1cccc(CNc2nc(NC3CCOCC3)c3nc[nH]c3n2)c1 [Compound 42]	3.7			
FC(F)(F)c1cccc(CNc2nc(NCc3cccnc3)c3nc[nH]c3n2)c1 [Compound 43]	2.8	27 ± 2	75 ± 8	
COc1ccc(CNc2nc(NCc3cccc(C(F)(F)F)c3)nc3[nH]cnc23)cc1 [Compound 44]		82 ± 13		
CC(C)n1cnc2c(NCc3ccccc3)nc(NCc3cccc(C(F)(F)F)c3)nc21 [Compound 45]				CnArg1 IC50 [5]: did not have any inhibitory activity
COCCNc1nc(NCc2cccc(Br)c2)nc2c1ncn2C [Compound 46]				CnArg1 IC50 [5]: did not have any inhibitory activity
O=[N+]([O-])c1ccc(CNc2nc(NCc3cccc(C(F)(F)F)c3)nc3[nH]cnc23)cc1 [TNP, N2-(m-trifluorobenzylamino)-N6-(p-nitrobenzylamino)purine]	0.3			Inhibition of CaIpk2 [7]: did not inhibit; also recorded: no inhibitory activity; IC50 (IP6K): 0.47 µM; Inhibition of rat IPMK (rat IPMK [8]): does not inhibit; Solubility in SPR analysis (Solubility observations): Poor solubility—ND; IC50 (human IP3K): 10 µM

— PMC9599641, “TNP Analogues Inhibit the Virulence Promoting IP3-4 Kinase Arg1 in the Fungal Pathogen Cryptococcus neoformans” (Biomolecules, 2022)
